In US9815787B2, “Sulfonamide derivative or pharmaceutically acceptable acid addition salt thereof” (UNIVERSITY OF TSUKUBA, priority 2013, dated 2017):

Target: T1, OX2R (Homo sapiens, UniProt O43614)
T1 construct: expressed in transfected cells; host or cells: CHO (Chinese hamster ovary) cells constitutively expressing the OX2R gene and NFAT-luciferase (CHOOX2R)
T1 sequence (O43614 1-444): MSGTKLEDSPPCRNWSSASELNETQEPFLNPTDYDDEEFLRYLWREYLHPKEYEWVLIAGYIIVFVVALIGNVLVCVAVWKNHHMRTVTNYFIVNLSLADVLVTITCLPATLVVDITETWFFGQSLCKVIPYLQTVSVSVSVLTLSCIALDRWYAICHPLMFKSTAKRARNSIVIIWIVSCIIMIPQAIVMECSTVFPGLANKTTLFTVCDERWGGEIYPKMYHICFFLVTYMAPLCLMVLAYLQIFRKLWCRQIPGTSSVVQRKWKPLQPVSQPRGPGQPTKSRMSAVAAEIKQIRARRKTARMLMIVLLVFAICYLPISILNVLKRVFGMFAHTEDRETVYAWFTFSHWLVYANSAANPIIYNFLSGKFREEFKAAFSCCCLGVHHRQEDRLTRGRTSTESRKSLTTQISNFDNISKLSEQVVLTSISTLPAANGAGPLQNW
Experiment: Evaluation of agonist activity against OX2R (CHOOX2R cells, Fura2AM fluorescence, FDSS3000)
Type: cell-based
Outline: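 CHO cells stably expressing human OX2R (and NFAT-luciferase), cultured 48 h in 5% FBS DMEM. Agonist response read as change in Fura2AM fluorescence on compound addition in HEPES buffer. Final compound concentrations 0.1, 1.0 or 10 μM; 1% DMSO.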

[1] = test compound 0.1 μM; CHOOX2R cells; relative to orexin-A as full agonist (100%)
[2] = test compound 1.0 μM; CHOOX2R cells; relative to orexin-A as full agonist (100%)
[3] = test compound 10 μM; CHOOX2R cells; relative to orexin-A as full agonist (100%)
[4] = test compound 0.1 μM; relative to orexin-A as full agonist (100%); CHOOX2R cells
[5] = test compound 1.0 μM; relative to orexin-A as full agonist (100%); CHOOX2R cells
[6] = test compound 10 μM; relative to orexin-A as full agonist (100%); CHOOX2R cells
[7] = OX2R agonist activity; CHOOX2R cells
[8] = conversion with orexin-A as full agonist (maximum agonist activity 100%)

COc1cccc(-c2ccc(OC)c(S(=O)(=O)Nc3cccc(NCCNC(=O)c4ccccc4OC)c3)c2)n1 [Example 94, 2-methoxy-N-(2-((3-(2-methoxy-5-(6-methoxypyridin-2-yl)phenylsulfonamido)phenyl)amino)ethyl)benzamide]
Response (0.1 μM (%)) [1]: <5%
Response (1.0 μM (%)) [2]: <5%
Response (10 μM (%)) [3]: 22%

COc1cccc(C(=O)NCCNc2cccc(NS(=O)(=O)c3cc(-c4cccc(C(=O)N5CCCC5)c4)ccc3OC)c2)c1 [Example 86, 3-methoxy-N-(2-((3-(4-methoxy-3′-(pyrrolidine-1-carbonyl)-[1,1′-biphenyl]-3-ylsulfonamido)phenyl)amino)ethyl)benzamide]
Response (0.1 μM (%)) [1]: 10%
Response (1.0 μM (%)) [2]: 89%
Response (10 μM (%)) [3]: 81%

COc1ccc(C(=O)NCCNc2cccc(NS(=O)(=O)c3cc(-c4ccccc4F)ccc3OC)c2)cc1 [Example 3, N-(2-((3-(2′-fluoro-4-methoxy-[1,1′-biphenyl]-3-ylsulfonamide)phenyl)amino)ethyl)-4-methoxybenzamide]
Response (0.1 μM (%)) [4]: <5%
Response (1.0 μM (%)) [5]: 11%
Response (10 μM (%)) [6]: 50%

COc1ccc(-c2cccc(C(=O)N3CCC3)c2)cc1S(=O)(=O)Nc1cccc(NCCNC(=O)c2c(OC)cccc2OC)c1 [Example 85, N-(2-((3-(3′-(azetidine-1-carbonyl)-4-methoxy-[1,1′-biphenyl]-3-ylsulfonamido)phenyl)amino)ethyl)-2,6-dimethoxybenzamide]
Response (0.1 μM (%)) [1]: 19%
Response (1.0 μM (%)) [2]: 90%
Response (10 μM (%)) [3]: 90%

COc1ccccc1C(=O)NCCNc1cccc(NS(=O)(=O)c2cc(-c3cccc(F)c3)ccc2OC)c1 [Example 109, N-(2-((3-(3′-fluoro-4-methoxy-[1,1′-biphenyl]-3-ylsulfonamido)phenyl)amino)ethyl)-2-methoxybenzamide]
Response (0.1 μM (%)) [4]: 13%
Response (1.0 μM (%)) [5]: 46%
Response (10 μM (%)) [6]: 47%

COc1ccccc1C(=O)NCCNc1cccc(NS(=O)(=O)c2cc(-c3cccc(C(=O)NCCO)c3)ccc2OC)c1 [Example 74, N-(2-hydroxyethyl)-4′-methoxy-3′-(N-(3-((2-(2-methoxybenzamido)ethyl)amino)phenyl)sulfamoyl)-[1,1′-biphenyl]-3-carboxamide]
Response (0.1 μM (%)) [1]: <5%
Response (1.0 μM (%)) [2]: 51%
Response (10 μM (%)) [3]: 92%

COc1ccccc1C(=O)NCCNc1cccc(NS(=O)(=O)c2cc(-c3cc(F)ccc3Cl)ccc2OC)c1 [Example 32, N-(2-((3-(2′-chloro-5′-fluoro-4-methoxy-[1,1′-biphenyl]-3-ylsulfonamide)phenyl)amino)ethyl)-2-methoxybenzamide]
Response (0.1 μM (%)) [4]: <5%
Response (1.0 μM (%)) [5]: 26%
Response (10 μM (%)) [6]: 75%

COc1ccccc1C(=O)NCCNc1cccc(NS(=O)(=O)c2cc(-c3cccc(N)c3)ccc2OC)c1 [Example 37, N-(2-((3-(3′-amino-4-methoxy-[1,1′-biphenyl]-3-ylsulfonamide)phenyl)amino)ethyl)-2-methoxybenzamide]
Response (0.1 μM (%)) [1]: 16%
Response (1.0 μM (%)) [2]: 102%
Response (10 μM (%)) [3]: 163%

COc1ccc(-c2cccc(C(=O)N(C)C)c2)cc1S(=O)(=O)Nc1cccc(NCCNC(=O)c2ccccc2Cl)c1 [Example 42, 3′-(N-(3-((2-(2-chlorobenzamido)ethyl)amino)phenyl)sulfamoyl)-4′-methoxy-N,N-dimethyl-[1,1′-biphenyl]-3-carboxamide]
EC50 [7]: 31 nM
Emax [8]: 90%
Response (0.1 μM (%)) [1]: 65%
Response (1.0 μM (%)) [2]: 103%
Response (10 μM (%)) [3]: 114%

COc1ccccc1C(=O)NCCNc1cccc(NS(=O)(=O)c2cc(-c3ccccc3F)ccc2OC)c1 [Example 1, N-(2-((3-(2′-fluoro-4-methoxy-[1,1′-biphenyl]-3-ylsulfonamide)phenyl)amino)ethyl)-2-methoxybenzamide]
Response (0.1 μM (%)) [4]: <5%
Response (1.0 μM (%)) [5]: 21%
Response (10 μM (%)) [6]: 57%

COc1cc(C)c(-c2cccc(C(=O)N(C)C)c2)cc1S(=O)(=O)Nc1cccc(NCCNC(=O)c2cccc(F)c2)c1 [Example 102, 5′-(N-(3-((2-(3-fluorobenzamido)ethyl)amino)phenyl)sulfamoyl)-4′-methoxy-N,N,2′-trimethyl-[1,1′-biphenyl]-3-carboxamide]
Response (0.1 μM (%)) [4]: 61%
Response (1.0 μM (%)) [5]: 83%
Response (10 μM (%)) [6]: 85%

COc1ccc(-c2cccc(C(=O)N(C)C)c2)cc1S(=O)(=O)Nc1cccc(NCCNC(=O)c2cc(F)ccc2F)c1 [Example 53, 3′-(N-(3-((2-(2,5-difluorobenzamido)ethyl)amino)phenyl)sulfamoyl)-4′-methoxy-N,N-dimethyl-[1,1′-biphenyl]-3-carboxamide]
EC50 [7]: 1150 nM
Emax [8]: 87%
Response (0.1 μM (%)) [1]: 46%
Response (1.0 μM (%)) [2]: 89%
Response (10 μM (%)) [3]: 66%

COc1ccc(-c2cccc(C(=O)N(C)C)c2)cc1S(=O)(=O)Nc1cccc(NCCNC(=O)c2sccc2C)c1 [Example 60, N-(2-((3-(3′-(dimethylcarbamoyl)-4-methoxy-[1,1′-biphenyl]-3-ylsulfonamido)phenyl)amino)ethyl)-3-methylthiophene-2-carboxamide]
Response (0.1 μM (%)) [1]: <5%
Response (1.0 μM (%)) [2]: 43%
Response (10 μM (%)) [3]: 75%

COCCN(C)C(=O)c1cccc(-c2ccc(OC)c(S(=O)(=O)Nc3cccc(NCCNC(=O)c4ccccc4OC)c3)c2)c1 [Example 77, 4′-methoxy-3′-(N-(3-((2-(2-methoxybenzamido)ethyl)amino)phenyl)sulfamoyl)-N-(2-methoxyethyl)-N-methyl-[1,1′-biphenyl]-3-carboxamide]
Response (0.1 μM (%)) [1]: 42%
Response (1.0 μM (%)) [2]: 91%
Response (10 μM (%)) [3]: 82%

COc1ccc(-c2cccc(C(=O)N(C)C)c2)cc1S(=O)(=O)Nc1cccc(NCCNC(=O)c2nccn2C)c1 [Example 63, N-(2-((3-(3′-(dimethylcarbamoyl)-4-methoxy-[1,1′-biphenyl]-3-ylsulfonamido)phenyl)amino)ethyl)-1-methyl-1H-imidazole-2-carboxamide]
Response (0.1 μM (%)) [1]: <5%
Response (1.0 μM (%)) [2]: 81%
Response (10 μM (%)) [3]: 82%

COc1ccccc1C(=O)NCCNc1cccc(NS(=O)(=O)c2cc(-c3cccc(CO)c3)ccc2OC)c1 [Example 39, N-(2-((3-(3′-(hydroxymethyl)-4-methoxy-[1,1′-biphenyl]-3-ylsulfonamide)phenyl)amino)ethyl)-2-methoxybenzamide]
Response (0.1 μM (%)) [1]: <5%
Response (1.0 μM (%)) [2]: 27%
Response (10 μM (%)) [3]: 102%

COc1ccc(-c2ccccc2F)cc1S(=O)(=O)Nc1cccc(NCCNC(=O)c2ccc(Cl)cc2)c1 [Example 9, 4-chloro-N-(2-((3-(2′-fluoro-4-methoxy-[1,1′-biphenyl]-3-ylsulfonamide)phenyl)amino)ethyl)benzamide]
Response (0.1 μM (%)) [4]: <5%
Response (1.0 μM (%)) [5]: <5%
Response (10 μM (%)) [6]: <5%

COc1cccc(C(=O)NCCNc2cccc(NS(=O)(=O)c3cc(-c4c(F)cccc4OC)ccc3OC)c2)c1 [Example 24, N-(2-((3-(2′-fluoro-4,6′-dimethoxy-[1,1′-biphenyl]-3-ylsulfonamide)phenyl)amino)ethyl)-3-methoxybenzamide]
Response (0.1 μM (%)) [4]: <5%
Response (1.0 μM (%)) [5]: <5%
Response (10 μM (%)) [6]: <5%

COc1cccc(C(=O)NCCNc2cccc(NS(=O)(=O)c3cc(-c4ccccc4Cl)ccc3OC)c2)c1 [Example 11, N-(2-((3-(2′-chloro-4-methoxy-[1,1′-biphenyl]-3-ylsulfonamide)phenyl)amino)ethyl)-3-methoxybenzamide]
Response (0.1 μM (%)) [4]: <5%
Response (1.0 μM (%)) [5]: 17%
Response (10 μM (%)) [6]: 23%

COc1ccc(-c2cccc(C(=O)N(C)C)c2)cc1S(=O)(=O)Nc1cccc(NCCNC(=O)c2ccccc2C)c1 [Example 65, 4′-methoxy-N,N-dimethyl-3′-(N-(3-((2-(2-methylbenzamido)ethyl)amino)phenyl)sulfamoyl)-[1,1′-biphenyl]-3-carboxamide]
EC50 [7]: 800 nM
Emax [8]: 85%
Response (0.1 μM (%)) [1]: 74%
Response (1.0 μM (%)) [2]: 96%
Response (10 μM (%)) [3]: 74%

COc1ccccc1C(=O)NCCNc1cccc(NS(=O)(=O)c2cc(-c3cc(Cl)ccc3Cl)ccc2OC)c1 [Example 25, N-(2-((3-(2′,5′-dichloro-4-methoxy-[1,1′-biphenyl]-3-ylsulfonamide)phenyl)amino)ethyl)-2-methoxybenzamide]
Response (0.1 μM (%)) [4]: <5%
Response (1.0 μM (%)) [5]: 7%
Response (10 μM (%)) [6]: 38%

COc1cccc(C(=O)NCCNc2cccc(NS(=O)(=O)c3cc(-c4cc(Cl)cc(Cl)c4)ccc3OC)c2)c1 [Example 28, N-(2-((3-(3′,5′-dichloro-4-methoxy-[1,1′-biphenyl]-3-ylsulfonamide)phenyl)amino)ethyl)-3-methoxybenzamide]
Response (0.1 μM (%)) [4]: <5%
Response (1.0 μM (%)) [5]: <5%
Response (10 μM (%)) [6]: <5%
